According to the NIST ThermoML archive (doi:10.1016/j.jct.2013.05.051):

Assay: xn = mol fraction of the nth substance listed
Conditions: Liquid, Vibrating tube method

CCCCCCCO [heptan-1-ol] + CCCCCCC
mass density [kg/m3]
Conditions | x1 = 0.1493 | x1 = 0.3215 | x1 = 0.5226 | x1 = 0.6698 | x1 = 0.8469 | x1 = 1
333.15 K, 140000 kPa | – | 779.8 | 804.5 | 823.2 | 851.4 | 864.3
353.15 K, 100 kPa | 654.4 | 676.1 | 705.8 | 728.5 | 762.3 | 778.1
353.15 K, 1000 kPa | 655.7 | 677.3 | 706.8 | 729.4 | 763.1 | 778.8
353.15 K, 5000 kPa | 661.2 | 682.2 | 711.3 | 733.6 | 766.7 | 782.3
353.15 K, 10000 kPa | 667.4 | 687.9 | 716.4 | 738.3 | 771 | 786.3
353.15 K, 15000 kPa | 673.1 | 693.2 | 721.3 | 742.9 | 775.2 | 790.2
353.15 K, 20000 kPa | 678.4 | 698.2 | 725.8 | 747.1 | 779 | 793.9
353.15 K, 25000 kPa | 683.2 | 702.8 | 730.1 | 751.1 | 782.7 | 797.3
353.15 K, 30000 kPa | 687.9 | 707.1 | 734.2 | 755 | 786.3 | 800.7
353.15 K, 35000 kPa | 692.2 | 711.1 | 738 | 758.6 | 789.6 | 804
353.15 K, 40000 kPa | 696.2 | 715 | 741.6 | 762 | 792.8 | 807.1
353.15 K, 45000 kPa | 700.2 | 718.7 | 745.1 | 765.4 | 795.9 | 810
353.15 K, 50000 kPa | 704 | 722.4 | 748.5 | 768.7 | 799 | 813
353.15 K, 55000 kPa | 707.5 | 725.7 | 751.7 | 771.8 | 801.9 | 815.8
353.15 K, 60000 kPa | 711 | 729 | 754.9 | 774.8 | 804.7 | 818.6
353.15 K, 65000 kPa | 714.3 | 732.2 | 757.9 | 777.7 | 807.5 | 821.2
353.15 K, 70000 kPa | 717.5 | 735.2 | 760.9 | 780.5 | 810.2 | 823.8
353.15 K, 80000 kPa | 723.5 | 741 | 766.4 | 785.9 | 815.2 | 828.7
353.15 K, 90000 kPa | 729.1 | 746.5 | 771.7 | 791.1 | 820.1 | 833.5
353.15 K, 100000 kPa | 734.4 | 751.6 | 776.7 | 795.9 | 824.8 | 837.9
353.15 K, 110000 kPa | 739.6 | 756.6 | 781.5 | 800.6 | 829.3 | 842.3
353.15 K, 120000 kPa | 744.3 | 761.2 | 786 | 804.9 | 833.4 | 846.4
353.15 K, 130000 kPa | 748.8 | 765.6 | 790.2 | 809 | 837.5 | 850.3
353.15 K, 140000 kPa | 753.2 | 769.9 | 794.6 | 813.2 | 841.4 | 854.3
373.15 K, 100 kPa | – | – | – | – | – | 761.9
373.15 K, 1000 kPa | 636.8 | 658.8 | 688.9 | 712.2 | 746.6 | 762.8
373.15 K, 5000 kPa | 643.2 | 664.6 | 694.1 | 716.9 | 750.7 | 766.6
373.15 K, 10000 kPa | 650.5 | 671.2 | 700 | 722.4 | 755.5 | 771.1
373.15 K, 15000 kPa | 656.9 | 677.2 | 705.5 | 727.5 | 760.2 | 775.5
373.15 K, 20000 kPa | 662.9 | 682.7 | 710.6 | 732.2 | 764.4 | 779.5
373.15 K, 25000 kPa | 668.4 | 687.9 | 715.4 | 736.7 | 768.6 | 783.4
373.15 K, 30000 kPa | 673.6 | 692.7 | 719.9 | 740.9 | 772.4 | 787.1
373.15 K, 35000 kPa | 678.4 | 697.2 | 724.1 | 744.9 | 776 | 790.6
373.15 K, 40000 kPa | 682.8 | 701.4 | 728.1 | 748.7 | 779.7 | 794
373.15 K, 45000 kPa | 687.2 | 705.6 | 732 | 752.4 | 783 | 797.2
373.15 K, 50000 kPa | 691.2 | 709.3 | 735.5 | 755.9 | 786.3 | 800.3
373.15 K, 55000 kPa | 695.1 | 713 | 739.1 | 759.2 | 789.4 | 803.4
373.15 K, 60000 kPa | 698.8 | 716.6 | 742.4 | 762.4 | 792.4 | 806.3
373.15 K, 65000 kPa | 702.3 | 720.1 | 745.7 | 765.5 | 795.5 | 809.2
373.15 K, 70000 kPa | 705.7 | 723.2 | 748.8 | 768.5 | 798.2 | 811.9
373.15 K, 80000 kPa | 712.2 | 729.5 | 754.8 | 774.4 | 803.7 | 817.2
373.15 K, 90000 kPa | 718.3 | 735.4 | 760.4 | 779.8 | 808.9 | 822.3
373.15 K, 100000 kPa | 723.8 | 740.9 | 765.7 | 784.9 | 813.8 | 827
373.15 K, 110000 kPa | 729.2 | 746.1 | 770.7 | 789.8 | 818.5 | 831.6
373.15 K, 120000 kPa | 734.3 | 751 | 775.5 | 794.4 | 822.9 | 835.9
373.15 K, 130000 kPa | 739.1 | 755.7 | 780.1 | 798.9 | 827.3 | 840.2
373.15 K, 140000 kPa | 743.7 | 760.2 | 784.5 | 803.1 | 831.4 | 844.1
393.15 K, 100 kPa | – | – | – | – | – | 744.9
393.15 K, 1000 kPa | 617.4 | 639.3 | 670.1 | 693.9 | 729.1 | 745.8
393.15 K, 5000 kPa | 625 | 646.2 | 676.1 | 699.4 | 733.9 | 750.2
393.15 K, 10000 kPa | 633.5 | 653.8 | 683 | 705.6 | 739.3 | 755.3
393.15 K, 15000 kPa | 640.9 | 660.7 | 689.2 | 711.4 | 744.5 | 760.1
393.15 K, 20000 kPa | 647.6 | 666.9 | 694.9 | 716.6 | 749.2 | 764.6
393.15 K, 25000 kPa | 653.8 | 672.7 | 700.2 | 721.6 | 753.7 | 768.8
393.15 K, 30000 kPa | 659.5 | 678 | 705.2 | 726.3 | 758 | 772.9
393.15 K, 35000 kPa | 664.8 | 683.1 | 709.8 | 730.6 | 762.1 | 776.8
393.15 K, 40000 kPa | 669.7 | 687.7 | 714.2 | 734.8 | 765.9 | 780.4
393.15 K, 45000 kPa | 674.3 | 692.1 | 718.3 | 738.8 | 769.6 | 783.9
393.15 K, 50000 kPa | 678.7 | 696.3 | 722.3 | 742.6 | 773.1 | 787.3
393.15 K, 55000 kPa | 683 | 700.4 | 726.2 | 746.3 | 776.6 | 790.7
393.15 K, 60000 kPa | 687 | 704.1 | 729.8 | 749.7 | 779.8 | 793.8
393.15 K, 65000 kPa | 690.7 | 707.8 | 733.2 | 753.1 | 782.9 | 796.8
393.15 K, 70000 kPa | 694.4 | 711.4 | 736.7 | 756.4 | 786.1 | 799.8
393.15 K, 80000 kPa | 701.3 | 718.1 | 743.1 | 762.5 | 791.9 | 805.5
393.15 K, 90000 kPa | 707.8 | 724.3 | 749.2 | 768.3 | 797.5 | 810.9
393.15 K, 100000 kPa | 713.7 | 730.1 | 754.7 | 773.8 | 802.6 | 815.9
393.15 K, 110000 kPa | 719.4 | 735.7 | 760.1 | 778.9 | 807.7 | 820.8
393.15 K, 120000 kPa | 724.6 | 740.8 | 765 | 783.8 | 812.3 | 825.3
393.15 K, 130000 kPa | 729.7 | 745.7 | 769.8 | 788.5 | 816.8 | 829.8
393.15 K, 140000 kPa | 734.6 | 750.5 | 774.5 | 793 | 821.3 | 834
